This note sets out measurements from ChEMBL document CHEMBL1154960, “Development of improved inhibitors of wall teichoic acid biosynthesis with potent activity against Staphylococcus aureus” (Bioorg Med Chem Lett, 2010).

Data set [1] has as its system Staphylococcus aureus. Kind of data set: Antibacterial activity against Staphylococcus aureus RN4220 after 12 hrs by optical density plate reader method. In kind it is functional. As to conditions: Staphylococcus aureus, RN4220, 12 h; read-out: MIC.
Data set [2] relates to Staphylococcus aureus. Description: Antibacterial activity against tarO deficient Staphylococcus aureus RN4220 after 12 hrs by optical density plate reader method. In kind it is functional. Particulars: RN4220, 12 h.
The test system of data set [3] is Staphylococcus aureus. Kind of data set: Antibacterial activity against methicillin-sensitive Staphylococcus aureus RN6390 after 12 hrs by optical density plate reader method. As to conditions: RN6390, 12 h. The format is functional.
For data set [4], the system named is Staphylococcus aureus. Kind of data set: Bacteriostatic activity against Staphylococcus aureus RN4220 assessed as reduction in CFU at 8 times MIC up to 8 hrs by kill curve analysis. In kind it is functional, organism-based.
Data set [5] concerns Staphylococcus aureus. Description: Antibacterial activity against methicillin-resistant Staphylococcus aureus MW2 after 12 hrs by optical density plate reader method. In kind it is functional. As to conditions: MW2, 12 h.
In data set [6] the test system is Staphylococcus aureus. Description: Antibacterial activity against methicillin-sensitive Staphylococcus aureus Newman after 12 hrs by optical density plate reader method. The format is functional.
The subject of data set [7] is Staphylococcus aureus. Description: Antibacterial activity against methicillin-resistant Staphylococcus aureus COL after 12 hrs by optical density plate reader method. The format is functional.
The test system of data set [8] is Staphylococcus aureus. Description: Antibacterial activity against tarO deficient Staphylococcus aureus RN4220 assessed as growth inhibition at 100 uM after 12 hrs by optical density plate reader method. In kind it is functional. Particulars: RN4220, 12 h, read-out: GI.
In data set [9] the test system is Mus musculus. Description: Toxicity in CD1 mouse at 100 mg/kg, iv. The arrangement: dose 100 mg/kg, route intravenous. As to conditions: in vivo. The format is organism-based.
Data set [10] deals with Mus musculus. Kind of data set: Toxicity in CD1 mouse at 75 mg/kg, iv after 24 hrs. As to conditions: in vivo. The arrangement: dose 75 mg/kg, route intravenous. The format is organism-based.
In data set [11] the test system is Staphylococcus aureus. Description: Antibacterial activity against Staphylococcus aureus RN4220 after 12 hrs by optical density plate reader method in presence of 50% fetal bovine serum. The format is functional.

Structures are written as SMILES. Values after ≈ are worked out from the molar mass of the structure shown. Active and inactive are the calls of the source. No cut-off for these calls is given here. Some results are limits rather than exact numbers.

For `CCN(CC)c1nc2c(S(=O)(=O)c3ccccc3)nnn2c2cc([N+](=O)[O-])ccc12`, the minimal inhibitory concentration (MIC) amounted to 100 µM (≈ 42.6 µg/mL) with Staphylococcus aureus [1] and 50 µM (≈ 21.3 µg/mL) in the data set with Staphylococcus aureus [2].
Take `CCN(CC)c1nc2c(S(=O)(=O)c3ccccc3)nnn2c2ccc(Cl)cc12`: the minimum inhibitory concentration (MIC) with Staphylococcus aureus [3] amounted to 6.3 µM (≈ 2.62 µg/mL); with Staphylococcus aureus [1], 3.6 µM (≈ 1.5 µg/mL); in the data set with Staphylococcus aureus [5] it was 6.3 µM (≈ 2.62 µg/mL); in the data set with Staphylococcus aureus [6], 12.5 µM (≈ 5.2 µg/mL); in the data set with Staphylococcus aureus [7], 6.3 µM (≈ 2.62 µg/mL). Also, the result with Staphylococcus aureus [4] was Active. In the data set with Staphylococcus aureus [8], the inhibition of growth at 100 µM is below 30%.
For the compound `CCN(CC)c1nc2c(S(=O)(=O)c3ccc(Cl)cc3)nnn2c2cc(OC)c(OC)cc12`, the Activity result was “Toxic” in the data set with Mus musculus [9] and “Non-toxic” in the data set with Mus musculus [10]. The MIC turned out to be 0.3 µM (≈ 0.143 µg/mL) against Staphylococcus aureus [3]; 0.3 µM (≈ 0.143 µg/mL) in the data set on Staphylococcus aureus [1]; 0.6 µM (≈ 0.286 µg/mL) against Staphylococcus aureus [5]; 0.3 µM (≈ 0.143 µg/mL) against Staphylococcus aureus [6]; 0.6 µM (≈ 0.286 µg/mL) with Staphylococcus aureus [7]. The “fold change (FC)” value in the data set with Staphylococcus aureus [11] is 8. In the data set with Staphylococcus aureus [8], the inhibition of growth at 100 µM was below 30%.
